Experimental data taken from US9150543B2, “Substituted indolyl alkyl amino derivatives as inhibitors of histone deacetylase” (Janssen Pharmaceutica N. V., priority 2004, dated 2015).
In brackets after ≈: the same amount, converted by molar mass. Read-outs that look alike come from different tables or passages of the source.

Assays:
[1] = tested on: p21 promoter reporter A2780 tumour in nude mice; experiment: p21 promoter induction, in vivo method, tumour fluorescence (C.6.c); conditions: 20-40 mpk orally or intravenously daily during 6 days, ranked inactive, weaker, identical or better than R306465
Protocol: Another method tests the capacity of compounds to induce p21 as the consequence of HDAC inhibition at the cellular level. […] The reporter gene is a fluorescent protein and the expression of the reporter gene is measured as the amount of fluorescent light emitted (see example C.6.b.). The last method is an in vivo method wherein mice are used for screening the pharmaceutical activity of a compound. The above described stably transformed tumour cells can be administered to mice in an amount sufficient to effect production of a tumour. After the tumour cells had sufficient time to form a tumour, a potentially active compound can be administered to the animals and the effect of said compound on the tumour cells is evaluated by measuring the expression of the reporter gene. Incubation with pharmaceutical active compounds will result in an increase of reporter gene expression compared to the control levels (see example C.6.c.)
A selected clone was injected subcutaneous (10^7 cells/200 μl) into the flank of nude mice and a calliper measurable tumour was obtained after 12 days. […] Tumours were evaluated for fluorescence by the in-house developed Automated Whole Body Imaging System (Fluorescent stereomicroscope type Olympus® SZX12 equipped with a GFP filter and coupled to a CCD camera type JAI® CV-M90 controlled by a software package based on the IMAQ Vision Software from National Instruments®). […]

[2] = Metabolic stability with rat hepatocytes cell culture (C.5.b); format: in vitro ADME; conditions: 5 μM
Protocol: Rat hepatocytes were isolated from male Sprague Dowley rats. The compounds were dissolved to a 5 mM stock solution in 100% DMSO and incubated at a final concentration of 5 μM for 0, 15, 30, 60 and 120 min with rat hepatocyte cell cultures (0.5 million viable cells/0.5 ml) using 24-well plates.
Samples were prepared for LC-MS by addition of two volumes of DMSO. The samples were thoroughly shaken and subsequently centrifuged at 900 g for 10 min (room temperature). All experiments were performed in triplicate. Of the resulting supernatant 50 μl was analysed by LC-MS.
For LC-MS, elution of samples was performed on a Hypersil BDS C18 column (50×4.6 mm, 5 μm, Thermohypersil, UK). The HPLC system comprised a Surveyor delivery system (Surveyor Inc., San Jose, US) equipped with a Surveyor autosampler device. Elution was with buffer A (10 mM ammoniumacetate (pH 6.9) in H2O/Acetonitrile (95:5)) and solvent B (acetonitrile) at a flow rate of 1.2 ml/min. The gradient employed was 0.5 min solvent A as start condition followed by increasing the organic phase concentration from 0% B till 95% B over 2 min in a linear fashion. This phase was kept stationary for a further 2 min and reduced again to 0% B within 0.5 min.
Total injection volume of samples was 50 μL. Column oven temperature was kept at 40° C. The LC flow was splitted for MS detection and 0.1 ml let into the source. An triple quadrupol mass spectrometer TSQ Quantum (Thermofinnigan, LaJolla, USA) mass spectrometer fitted with an ESI source was used for detection. Source voltage was set at 3800 volt, the capillary temperature at 300° C. The mass spectrometer was operated in positive ion mode in SIM adjusted to the mass of M+H with a scan width of 1 Da for quantification purposes. Instrument control, data acquisition and processing were performed using the Xcalibur software (ThermoFinnigan, San Jose, Calif., U.S.A). The metabolic stability of compounds in rat hepatocytes was expressed as in vitro half-lives.

[3] = biological target: histone deacetylase (HeLa nuclear extracts); experiment: In vitro assay for inhibition of histone deacetylase with [3H]-labelled substrate (C.1.a); format: biochemical; conditions: [3H]-acetylated histone H4 peptide substrate
Protocol: As a substrate for measuring HDAC activity a synthetic peptide, i.e. the amino acids 14-21 of histone H4, was used. The substrate is biotinylated at the NH2-terminal part with a 6-aminohexanoic acid spacer, and is protected at the COOH-terminal part by an amide group and specifically [^3H]acetylated at lysine 16. The substrate, biotin-(6-aminohexanoic)Gly-Ala-([^3H]-acetyl-Lys-Arg-His-Arg-Lys-Val-NH2), was added in a buffer containing 25 mM Hepes, 1 M sucrose, 0.1 mg/ml BSA and 0.01% Triton X-100 at pH 7.4. After 30 min the deacetylation reaction was terminated by the addition of HCl and acetic acid. (final concentration 0.035 mM and 3.8 mM respectively). After stopping the reaction, the free ^3H-acetate was extracted with ethylacetate. After mixing and centrifugation, the radioactivity in an aliquot of the upper (organic) phase was counted in a β-counter.
For each experiment, controls (containing HeLa nuclear extract and DMSO without compound), a blank incubation (containing DMSO but no HeLa nuclear extract or compound) and samples (containing compound dissolved in DMSO and HeLa nuclear extract) were run in parallel. In first instance, compounds were tested at a concentration of 10^−5M. […] In each test the blank value was subtracted from both the control and the sample values. The control sample represented 100% of substrate deactylation. For each sample the radioactivity was expressed as a percentage of the mean value of the controls. […] Herein the effects of test compounds are expressed as pIC50 (the negative log value of the IC50-value) (see Table F-3).

[4] = tested on: A2780 ovarian carcinoma cells; experiment: Antiproliferative activity on A2780 cells, MTT (C.2); format: cell-based; conditions: Homo sapiens, 96 h, four days of incubation, read-out: Cellular activity pIC50 C.2 (converted)
Protocol: All compounds tested were dissolved in DMSO and further dilutions were made in culture medium. Final DMSO concentrations never exceeded 0.1% (v/v) in cell proliferation assays. Controls contained A2780 cells and DMSO without compound and blanks contained DMSO but no cells. MTT was dissolved at 5 mg/ml in PBS. A glycine buffer comprised of 0.1 M glycine and 0.1 M NaCl buffered to pH 10.5 with NaOH (1N) was prepared (all reagents were from Merck).
The human A2780 ovarian carcinoma cells (a kind gift from Dr. T. C. Hamilton [Fox Chase Cancer Centre, Pennsylvania, USA]) were cultured in RPMI 1640 medium supplemented with 2 mM L-glutamine, 50 μg/ml gentamicin and 10% fetal calf serum. Cells were routinely kept as monolayer cultures at 37° C. in a humidified 5% CO2 atmosphere. Cells were passaged once a week using a trypsin/EDTA solution at a split ratio of 1:40. All media and supplements were obtained from Life Technologies. Cells were free of mycoplasma contamination as determined using the Gen-Probe Mycoplasma Tissue Culture kit (supplier: BioMerieux).
Cells were seeded in NUNC™ 96-well culture plates (Supplier: Life Technologies) and allowed to adhere to the plastic overnight. Densities used for plating were 1500 cells per well in a total volume of 200 μl medium. After cell adhesion to the plates, medium was changed and drugs and/or solvents were added to a final volume of 200 μl. Following four days of incubation, medium was replaced by 200 μl fresh medium and cell density and viability was assessed using an MTT-based assay. To each well, 25 μl MTT solution was added and the cells were further incubated for 2 hours at 37° C. The medium was then carefully aspirated and the blue MTT-formazan product was solubilized by addition of 25 μl glycine buffer followed by 100 μl of DMSO. […] Within an experiment, the results for each experimental condition are the mean of 3 replicate wells. For initial screening purposes, compounds were tested at a single fixed concentration of 10^−6 M. For active compounds, the experiments were repeated to establish full concentration-response curves. For each experiment, controls (containing no drug) and a blank incubation (containing no cells or drugs) were run in parallel. The blank value was subtracted from all control and sample values. For each sample, the mean value for cell growth (in absorbance units) was expressed as a percentage of the mean value for cell growth of the control. […] Herein the effects of test compounds are expressed as pIC50 (the negative log value of the IC50-value)(see Table F-3).

[5] = not given; remark: listed apart in the source
[6] = Solubility/stability at different pH's, chemiluminescent nitrogen detector (C.3.b); format: physicochemical; conditions: aqueous buffer; pH = 2.3
Excerpt: In a second method the solubility of a compound at different pH's can be measured with the use of a Chemiluminescent Nitrogen Detector (see example C.3.b).
The solubility of a compound, at different pH's, can also be measured with the use of a chemiluminescent nitrogen detector. (see Table F-3).

[7] = biological target: histone deacetylase (HeLa nuclear extracts); experiment: In vitro assay for inhibition of histone deacetylase with fluorescent-labelled substrate (C.1.b); format: biochemical; conditions: Fluor de Lys substrate
Protocol: The HDAC Fluorescent Activity Assay/Drug Discovery Kit of Biomol (cat.No: AK-500-0001) was used. The HDAC Fluorescent Activity Assay is based on the Fluor de Lys (Fluorogenic Histone deAcetylase Lysyl) substrate and developer combination. The Fluor de Lys substrate, comprises an acetylated lysine side chain. Deacetylation of the substrate sensitizes the substrate so that, in the second step, treatment with the Fluor de Lys developer produces a fluorophore.
After 30 min, 1 volume of the developer was added. […] For each experiment, controls (containing HeLa nuclear extract and buffer), a blank incubation (containing buffer but no HeLa nuclear extract) and samples (containing compound dissolved in DMSO and further diluted in buffer and HeLa nuclear extract) were run in parallel. In first instance, compounds were tested at a concentration of 10^−5M. […] All sample were tested 4 times. In each test the blank value was subtracted from both the control and the sample values. The control sample represented 100% of substrate deactylation. For each sample the fluorescence was expressed as a percentage of the mean value of the controls. […] Herein the effects of test compounds are expressed as pIC50 (the negative log value of the IC50-value) (see Table F-3).

| SMILES | IC50 [4] [nM] | melting point [5] [°C] | Enzymatic activity pIC50 C.1.b [7] | other results |
| --- | --- | --- | --- | --- |
| COc1cc(N)c(Cl)cc1C(=O)NC1CCN(CCCOc2ccc(F)cc2)CC1OC (stereo not shown) [Cisapride] | – | – | – | % metabolism (human, 15 min, 5 μM): 45% |
| Cn1cc(CNCC2CCN(c3ncc(C(=O)NO)cn3)CC2)c2ccccc21 [Compound 1] | – | – | – | tumour fluorescence ranking versus R306465 [1]: better than R306465; in vitro half-live [2]: 81 min |
| CN(CCc1c[nH]c2ccccc12)CC1CCN(c2ncc(C(=O)NO)cn2)CC1 [Compound 3] | 200 | 121 | – | Enzymatic activity pIC50 C.1.a. [3]: 8.5 |
| O=C(NO)c1cnc(N2CCC(CNCCc3c[nH]c4ccccc34)CC2)nc1 [Compound 5] | 316 | – | – | Enzymatic activity pIC50 C.1.a. [3]: 8.6; in vitro half-live [2]: 60 min; solubility [6]: 2000 µg/mL (≈ 5.07 mM) |
| Cn1cc(CNC2CCN(c3ncc(C(=O)NO)cn3)CC2)c2ccccc21 [Compound 6] | 501 | – | – | Enzymatic activity pIC50 C.1.a. [3]: 8.2 |
| O=C(NO)c1cnc(N2CCC(NCc3c[nH]c4ccccc34)CC2)nc1 [Compound 7] | 794 | – | – | Enzymatic activity pIC50 C.1.a. [3]: 8.5 |
| O=C(NO)c1cnc(N2CCN(S(=O)(=O)c3ccc4ccccc4c3)CC2)nc1 [Compound R306465, reference compound] | – | – | – | in vitro half-live [2]: 8 min |
| CCCO [propanol] | – | – | – | % metabolism (15 min incubation with microsomes, compound 5 μM): 25% |

Now from value to compound, other results behind:

| IC50 [4] [nM] | melting point [5] [°C] | Enzymatic activity pIC50 C.1.b [7] | SMILES | other results |
| --- | --- | --- | --- | --- |
| 7.94 | 90 | 9.5 | CCN(Cc1cn(CC)c2ccccc12)CC1CCN(c2ncc(C(=O)NO)cn2)CC1 [Compound 20] | solubility [6]: 2700 µg/mL (≈ 6.18 mM) |
| 25.1 | 83 | 8.5 | CN(CCc1cn(C)c2ccccc12)CC1CCN(c2ncc(C(=O)NO)cn2)CC1 [Compound 21] | solubility [6]: 1900 µg/mL (≈ 4.5 mM) |
| 316 | 160 | 7.6 | COc1ccc2c(CCNCC3CCN(c4ncc(C(=O)NO)cn4)CC3)cn(C)c2c1 [Compound 24] | solubility [6]: 1600 µg/mL (≈ 3.65 mM) |
| 100 | 80 | 7.6 | CCCn1cc(CCN(CC)CC2CCN(c3ncc(C(=O)NO)cn3)CC2)c2ccc(OC)cc21 [Compound 25] | – |
| 31.6 | 188 | >9.0 | Cn1cc(CCNCC2CCN(c3ncc(C(=O)NO)cn3)CC2)c2cc(Cl)ccc21 [Compound 26] | – |
| 10 | 171 | >9.0 | CCCn1cc(CNCC2CCN(c3ncc(C(=O)NO)cn3)CC2)c2cc(Cl)ccc21 [Compound 27] | – |
| 79.4 | 80 | 8.1 | Cc1c(CCNCC2CCN(c3ncc(C(=O)NO)cn3)CC2)c2ccccc2n1C [Compound 28] | – |
